Data on 28 molecules can be found in patent US20140163012A1, “PYRIDO-/AZEPINO-BENZOFURAN AND PYRIDO-/AZEPINO-BENZOTHIOPHENE MCH-1 ANTAGONISTS, METHODS OF MAKING, AND USE THEREOF” (Albany Molecular Research, Inc., priority 2012, published 2014).

Structures are written as SMILES. Structures can show the parent of a compound that is named as a salt. Bounds are passed on as bounds.

The target in one data set is human MCH-1 receptor (Homo sapiens, UniProt Q99705). The data set can be described thus: Binding assay for human melanin-concentrating hormone (MCH-1) receptor, radioligand displacement on CHO-K1 cell membranes. Particulars: for inhibition at 1 µM: read-out: MCH1 % inhibition @ 1 uM. For orientation: Displacement assays read how much labelled ligand stays bound in the presence of the test substance.
human MCH-1 receptor, sequence (Q99705 whole entry): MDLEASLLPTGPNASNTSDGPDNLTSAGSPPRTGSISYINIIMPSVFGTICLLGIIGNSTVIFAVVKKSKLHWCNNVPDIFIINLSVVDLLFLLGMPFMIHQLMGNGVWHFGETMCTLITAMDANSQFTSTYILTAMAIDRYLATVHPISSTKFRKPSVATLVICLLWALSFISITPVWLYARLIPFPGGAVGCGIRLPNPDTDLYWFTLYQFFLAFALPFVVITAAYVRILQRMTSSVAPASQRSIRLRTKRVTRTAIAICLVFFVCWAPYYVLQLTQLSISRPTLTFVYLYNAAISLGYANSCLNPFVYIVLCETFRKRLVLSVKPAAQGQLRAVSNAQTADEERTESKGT

Method for human MCH-1 receptor: Nonspecific binding was determined in the presence of 50 μM 1-(5-(4-cyanophenyl)bicyclo[3.1.0]hexan-2-yl)-3-(4-fluoro-3-(trifluoromethyl)phenyl)-1-(3-(4-methylpiperazin-1-yl)propyl)urea. […] The filters were counted for radioactivity in a liquid scintillation counter (Tri-Carb 2100TR, Packard) using a scintillation cocktail (Ultima Gold MV, Perkin Elmer).
The results are expressed as a percent inhibition of the control radioligand specific binding. The IC50 value (concentration causing a half-maximal inhibition of control specific binding) and Hill coefficient (nH) were determined by non-linear regression analysis of the competition curve using Hill equation curve fitting.

`Cl.O=c1cc(CCc2ccccc2)ccn1-c1ccc2c3c(oc2c1)CCNC3` [Example 104, 4-Phenethyl-1-(1,2,3,4-tetrahydrobenzofuro[3,2-c]pyridin-7-yl)pyridin-2(1H)-one hydrochloride] came in with a melting point of 283 to 289 °C. At human MCH-1 receptor, this molecule gave a Ki of 6.6 nM.

With `Cl.O=c1cc(OCc2ccc(F)cn2)ccn1-c1ccc2sc3c(c2c1)CNCCC3` [Example 119, 4-((5-Fluoropyridin-2-yl)methoxy)-1-(2,3,4,5-tetrahydro-1H-benzo[4,5]thieno[3,2-c]azepin-9-yl)pyridin-2(1H)-one hydrochloride], the melting point was 170 to 172 °C. For the same molecule, the inhibition at 1 µM at human MCH-1 receptor was -2.6%.

For the molecule `Cl.O=c1cc(OCc2ccc(F)cn2)ccn1-c1ccc2sc3c(c2c1)CCCNC3` [Example 120, 4-(5-Fluoropyridin-2-ylmethoxy)-1-(2,3,4,5-tetrahydro-1H-benzo[4,5]thieno[2,3-c]azepin-7-yl)pyridin-2(1H)-one hydrochloride], the melting point is 180 to 182 °C. On human MCH-1 receptor, the inhibition at 1 µM turned out to be 1.3%.

Take `Cl.O=c1cc(OCc2ccc(F)cn2)cnn1-c1ccc2c3c(oc2c1)CCNC3` [Example 50, 5-((5-Fluoropyridin-2-yl)methoxy)-2-(1,2,3,4-tetrahydrobenzofuro[3,2-c]pyridin-7-yl)pyridazin-3(2H)-one hydrochloride]: the melting point was in the range of 268 to 269 °C. The molecule further had a Ki on human MCH-1 receptor of 36 nM.

With `Cl.O=C1CN(CCc2ccc(Cl)cn2)CCN1c1ccc2c3c(oc2c1)CCNC3` [Example 91, 4-(2-(5-Chloropyridin-2-yl)ethyl)-1-(1,2,3,4-tetrahydrobenzofuro[3,2-c]pyridin-7-yl)piperazin-2-one hydrochloride], the melting point was 220 to 223 °C. In addition, the Ki on human MCH-1 receptor turned out to be 84 nM.

In turn, `Cc1cc(OC(F)(F)F)ccc1-c1ccn(-c2ccc3c4c(oc3c2)CCNC4)c(=O)c1.Cl` [Example 114, 4-(2-Methyl-4-(trifluoromethoxy)phenyl)-1-(1,2,3,4-tetrahydrobenzofuro[3,2-c]pyridin-7-yl)pyridin-2(1H)-one hydrochloride] showed a melting point of 299 to 301 °C. Moreover, the Ki on human MCH-1 receptor came to 7.3 nM.

Regarding `Cl.O=c1cc(OCc2ccc(C(F)(F)F)nn2)ccn1-c1ccc2c3c(oc2c1)CCNC3` [Example 113, 1-(1,2,3,4-Tetrahydrobenzofuro[3,2-c]pyridin-7-yl)-4-((6-(trifluoromethyl)pyridazin-3-yl)methoxy)pyridin-2(1H)-one hydrochloride], the melting point was in the range of 289 to 291 °C. The molecule further came in with a Ki at human MCH-1 receptor of 20 nM.

In turn, `Cl.O=c1cc(OCc2ccccc2)ccn1-c1ccc2sc3c(c2c1)CNCC3` [Example 67, 4-Benzyloxy-1-(1,2,3,4-tetrahydrobenzo[4,5]thieno[3,2-c]pyridin-8-yl)pyridin-2(1H)-one hydrochloride] had a melting point of 245 to 247 °C. For the same molecule, the inhibition at 1 µM on human MCH-1 receptor came to 31%.

`Cl.O=c1cc(-c2ccc(C(F)(F)F)nn2)ccn1-c1ccc2c3c(oc2c1)CCNC3` [Example 88, 1-(1,2,3,4-Tetrahydrobenzofuro[3,2-c]pyridin-7-yl)-4-(6-(trifluoromethyl)pyridazin-3-yl)pyridin-2(1H)-one hydrochloride] showed a melting point of more than 300 °C. In addition, the inhibition at 1 µM on human MCH-1 receptor came out at 41%.

Regarding `Cl.O=c1cc(OCc2ccc(C(F)(F)F)nc2)ccn1-c1ccc2c3c(oc2c1)CCNC3` [Example 52, 1-(1,2,3,4-Tetrahydrobenzofuro[3,2-c]pyridin-7-yl)-4-((6-(trifluoromethyl)pyridin-3-yl)methoxy)pyridin-2(1H)-one hydrochloride], the melting point lay in the range of 278 to 280 °C. At human MCH-1 receptor, this molecule gave a Ki of 73 nM.

In turn, `Cl.O=c1cc(CCc2ccc(F)cn2)ccn1-c1ccc2c3c(oc2c1)CCNC3` [Example 102, 4-(2-(5-Fluoropyridin-2-yl)ethyl)-1-(1,2,3,4-tetrahydrobenzofuro[3,2-c]pyridin-7-yl)pyridin-2(1H)-one hydrochloride] registered a melting point of 165 to 169 °C. The same molecule returned a Ki on human MCH-1 receptor of 29 nM.

As for `Cc1ccc(COc2ccn(-c3ccc4c5c(oc4c3)CCNC5)c(=O)c2)cn1.Cl` [Example 51, 4-((6-Methylpyridin-3-yl)methoxy)-1-(1,2,3,4-tetrahydrobenzofuro[3,2-c]pyridin-7-yl)pyridin-2(1H)-one hydrochloride], the melting point lay in the range of 227 to 233 °C. Besides, at human MCH-1 receptor, the inhibition constant (Ki) was determined as 145 nM.

`Cl.O=c1cc(-c2ccc(C(F)(F)F)cc2)ccn1-c1ccc2c3c(oc2c1)CCNC3` [Example 71, 1-(1,2,3,4-Tetrahydrobenzofuro[3,2-c]pyridin-7-yl)-4-(4-(trifluoromethyl)phenyl)pyridin-2(1H)-one hydrochloride]: the melting point was more than 300 °C. In addition, on human MCH-1 receptor, the Ki was 7.5 nM.

`Cl.O=c1cc(OCc2ccc(F)cn2)ccn1-c1ccc2sc3c(c2c1)CCNCC3` [Example 69, 4-(5-Fluoropyridin-2-yl)methoxy-1-(2,3,4,5-tetrahydro-1H-benzo[4,5]thieno[2,3-d]azepin-9-yl)pyridin-2(1H)-one hydrochloride] registered a melting point of 228 to 230 °C. Moreover, at human MCH-1 receptor, the inhibition at 1 µM came out at 69%.

Turning to `Cl.O=c1nc(CCc2ccc(Cl)cn2)ccn1-c1ccc2c3c(oc2c1)CCNC3` [Example 101, 4-(2-(5-Chloropyridin-2-yl)ethyl)-1-(1,2,3,4-tetrahydrobenzofuro[3,2-c]pyridin-7-yl)pyrimidin-2(1H)-one hydrochloride], the melting point is 155 to 160 °C. Affinity on human MCH-1 receptor was put at a Ki of 20 nM.

`Cl.O=c1cc(CCc2ccc(Cl)cn2)ccn1-c1ccc2c3c(oc2c1)CCNC3` [Example 105, 4-(2-(5-Chloropyridin-2-yl)ethyl)-1-(1,2,3,4-tetrahydrobenzofuro[3,2-c]pyridin-7-yl)pyridin-2(1H)-one hydrochloride] displayed a melting point of 285 to 288 °C. At human MCH-1 receptor, this molecule had a Ki of 12 nM.

Consider `Cl.O=c1cc(OCc2ccccc2)ccn1-c1ccc2sc3c(c2c1)CNCCC3` [Example 118, 4-Benzyloxy-1-(2,3,4,5-tetrahydro-1H-benzo[4,5]thieno[3,2-c]azepin-9-yl)pyridin-2(1H)-one hydrochloride], for which the melting point lay within 176 to 178 °C. For the same molecule, the inhibition at 1 µM on human MCH-1 receptor amounted to 7.7%.

In turn, `Cl.O=c1cc(OCc2ccccc2)ccn1-c1ccc2sc3c(c2c1)CCNC3` [Example 65, 4-Benzyloxy-1-(1,2,3,4-tetrahydrobenzo[4,5]thieno[2,3-c]pyridin-6-yl)pyridin-2(1H)-one hydrochloride] showed a melting point of 170 °C. The molecule further registered a Ki at human MCH-1 receptor of 360 nM.

`Cl.O=C1CN(CCc2ccc(F)cn2)CCN1c1ccc2c3c(oc2c1)CCNC3` [Example 70, 4-(2-(5-Fluoropyridin-2-yl)ethyl)-1-(1,2,3,4-tetrahydrobenzofuro[3,2-c]pyridin-7-yl)piperazin-2-one hydrochloride] registered a melting point of 203 to 209 °C. Besides, the inhibition at 1 µM at human MCH-1 receptor worked out at 66%.

`COc1ccc(-c2ccn(-c3ccc4c5c(oc4c3)CCNC5)c(=O)c2)c(Cl)c1.Cl` [Example 112, 4-(2-Chloro-4-methoxyphenyl)-1-(1,2,3,4-tetrahydrobenzofuro[3,2-c]pyridin-7-yl)pyridin-2(1H)-one hydrochloride]: the melting point fell in the range of 294 to 297 °C. Moreover, the Ki on human MCH-1 receptor was determined as 6.9 nM.

Regarding `Cl.O=c1cc(OCc2ccc(F)cn2)ccn1-c1ccc2sc3c(c2c1)CCNC3` [Example 66, 4-((5-Fluoropyridin-2-yl)methoxy)-1-(1,2,3,4-tetrahydrobenzo[4,5]thieno[2,3-c]pyridin-6-yl)pyridin-2(1H)-one hydrochloride], the melting point is 278 to 280 °C. Further, the inhibition at 1 µM at human MCH-1 receptor turned out to be 34%.

Consider `Cl.O=c1cc(OCc2ccc(F)cn2)ccn1-c1ccc2sc3c(c2c1)CNCC3` [Example 68, 4-(5-Fluoropyridin-2-yl)methoxy-1-(1,2,3,4-tetrahydrobenzo[4,5]thieno[3,2-c]pyridin-8-yl)pyridin-2(1H)-one hydrochloride], for which the melting point lay within 165 to 167 °C. In addition, the inhibition at 1 µM on human MCH-1 receptor stood at 13%.

Take `O=c1cc(OCc2ccc(Cl)cn2)ccn1-c1ccc2c3c(oc2c1)CCNCC3` [Example 42, 4-((5-Chloropyridin-2-yl)methoxy)-1-(2,3,4,5-tetrahydro-1H-benzofuro[2,3-d]azepin-8-yl)pyridin-2(1H)-one hydrochloride]: on human MCH-1 receptor, the inhibitory constant (Ki) turned out to be 4.7 nM.

At human MCH-1 receptor, `O=c1cc(OCc2ccc(Cl)cn2)ccn1-c1ccc2c3c(oc2c1)CCCNC3` [Example 38, 4-((5-Chloropyridin-2-yl)methoxy)-1-(2,3,4,5-tetrahydro-1H-benzofuro[3,2-c]azepin-8-yl)pyridin-2(1H)-one hydrochloride] showed a Ki of 3 nM.

Molecule `Cc1ccc(COc2ccn(-c3ccc4c5c(sc4c3)CNCC5)c(=O)c2)cn1` [Example 62, 4-((6-Methylpyridin-3-yl)methoxy)-1-(1,2,3,4-tetrahydrobenzothieno[2,3-c]pyridin-7-yl)pyridin-2(1H)-one hydrochloride] displayed a Ki on human MCH-1 receptor of 103 nM.

As for `CN1CCCc2oc3cc(-n4ccc(OCc5ccc(C(F)(F)F)nc5)cc4=O)ccc3c2C1` [Example 86, 1-(2-Methyl-2,3,4,5-tetrahydro-1H-benzofuro[3,2-c]azepin-8-yl)-4-((6-(trifluoromethyl)pyridin-3-yl)methoxy)pyridin-2(1H)-one hydrochloride], the inhibitory constant (Ki) at human MCH-1 receptor amounted to 53 nM.

`O=c1cc(OCc2ccc(F)cn2)ccn1-c1ccc2c3c(sc2c1)CCNC3` [Example 55, 4-((5-Fluoropyridin-2-yl)methoxy)-1-(1,2,3,4-tetrahydrobenzothieno[3,2-c]pyridin-7-yl)pyridin-2(1H)-one hydrochloride] returned an inhibition constant (Ki) at human MCH-1 receptor of 2.7 nM.

In the case of `COc1ccc(-c2ccn(-c3ccc4c5c(oc4c3)CCNC5)c(=O)c2)c(F)c1.Cl` [Example 111, 4-(2-Fluoro-4-methoxyphenyl)-1-(1,2,3,4-tetrahydrobenzofuro[3,2-c]pyridin-7-yl)pyridin-2(1H)-one hydrochloride], the melting point fell in the range of 282 to 284 °C. This molecule had a Ki on human MCH-1 receptor of 16 nM.

Usually melting point stands for the temperature, or range, at which the solid turns liquid. As a reminder, the Ki is a dissociation constant, usually derived from enzyme kinetics or from competition with a known ligand. Broadly, the inhibition is the relative decrease from the control value, in per cent.
